As usually defined, the inhibition is the change of the read-out against control, counted positive when it falls. A higher inhibition goes with strong suppression.

The values below come from patent US20080051384A1, “ANTIVIRAL AGENTS” (Genelabs Technologies, Inc., priority 2006, published 2008).

This test is described as follows: Replicon Assay (luciferase, ET cell line). Type of test: cell-based, HCV. The conditions noted are these: Hepatitis C virus; tested at 6.25 μM; inhibition of replication (luciferase activity) relative to no compound control. Here is the method:
A cell line, ET (Huh-lucubineo-ET) was used for screening of compounds for inhibiting HCV RNA dependent RNA polymerase. The ET cell line was stably transfected with RNA transcripts harboring a I389luc-ubi-neo/NS3-3′/ET; replicon with firefly luciferase-ubiquitin-neomycin phosphotransferase fusion protein and EMCV-IRES driven NS3-5B polyprotein containing the cell culture adaptive mutations (E1202G; T12801; K1846T) (Krieger at al, 2001 and unpublished). The ET cells were grown in DMEM, supplemented with 10% fetal calf serum, 2 mM Glutamine, Penicillin (100 IU/mL)/Streptomycin (100 μg/mL), 1× nonessential amino acids, and 250 μg/mL G418 (“Geneticin”). They are all available through Life Technologies (Bethesda, Md.). The cells were plated at 0.5-1.0×10^4 cells/well in the 96 well plates and incubated for 24 hrs before adding test compound. The compounds were added to the cells to achieve a final concentration of 0.1 nM to 50 μm and a final DMSO concentration of 0.5%. Luciferase activity was measured 48-72 hours later by adding a lysis buffer and the substrate (Catalog number Glo-lysis buffer E2661 and Bright-Glo luciferase system E2620 Promega, Madison, Wis.). Cells should not be too confluent during the assay. Percent inhibition of replication data was plotted relative to no compound control. Under the same condition, cytotoxicity of the compounds were determined using cell proliferation reagent, WST-1 (Roche, Germany). The compounds showing antiviral activities, but no significant cytotoxicities were chosen to determine EC50 and TC50, the effective concentration and toxic concentration at which 50% of the maximum inhibition is observed. For these determinations, a 10 point, 2-fold serial dilution for each compound was used, which spans a concentration range of 1000 fold. EC50 and similarly the TC50 values were calculated by fitting % inhibition at each concentration to the following equation: % inhibition=100%/[(EC50/[I])^b+1] where b is Hill's coefficient.
For orientation: A replicon is a self-replicating genome or part of one, used to study replication in cells.

SMILES strings stand for the structures.

On to `Cc1nc(C)c(-c2ccc3cc(-c4c(C5CCCCC5)c5sc(C(=O)O)cc5n4CC(=O)N4CCOCC4)ccc3n2)s1` [compound 189, 6-cyclohexyl-5-[2-(2,4-dimethyl-thiazol-5-yl)-quinolin-6-yl]-4-(2-morpholin-4-yl-2-oxo-ethyl)-4H-thieno[3,2-b]pyrrole-2-carboxylic acid], for which the inhibition at 6.25 µM is 100%.
`Cc1nc(C)c(-c2ccc3cc(-c4c(C5=CCCCC5)c5sc(C(=O)O)cc5n4CC(=O)N4CCOCC4)ccc3n2)s1` [compound 187, 6-Cyclohex-1-enyl-5-[2-(2,4-dimethyl-thiazol-5-yl)-quinolin-6-yl]-4-(2-morpholin-4-yl-2-oxo-ethyl)-4H-thieno[3,2-b]pyrrole-2-carboxylic acid] yielded an inhibition at 6.25 µM of 63%.
For the compound `O=C(O)c1cc2c(s1)c(C1CCCCC1)c(-c1ccc3nc(-c4ccccc4F)ccc3c1)n2CC(=O)N1CCOCC1` [compound 188, 6-Cyclohexyl-5-[2-(2-fluoro-phenyl)-quinolin-6-yl]-4-(2-morpholin-4-yl-2-oxo-ethyl)-4H-thieno[3,2-b]pyrrole-2-carboxylic acid], the inhibition at 6.25 µM worked out at 99%.
To `Cc1nc(C)c(-c2ccc3cc(-c4c(C5CCCCC5)c5sc(C(=O)O)cc5n4CC(=O)N4CCCCC4)ccc3n2)s1` [compound 191, 6-cyclohexyl-5-[2-(2,4-dimethyl-thiazol-5-yl)-quinolin-6-yl]-4-(2-oxo-2-piperidin-1-yl-ethyl)-4H-thieno[3,2-b]pyrrole-2-carboxylic acid] belongs 97%; to `O=C(O)c1cc2c(s1)c(C1=CCCCC1)c(-c1ccc3nc(-c4ccccc4F)ccc3c1)n2CC(=O)N1CCOCC1` [compound 186, 6-Cyclohex-1-enyl-5-[2-(2-fluoro-phenyl)-quinolin-6-yl]-4-(2-morpholin-4-yl-2-oxo-ethyl)-4H-thieno[3,2-b]pyrrole-2-carboxylic acid], 75%.
To `Cc1nc(C)c(-c2ccc3cc(-c4c(C5CCCCC5)c5sc(C(=O)O)cc5n4CC(=O)N4CCSCC4)ccc3n2)s1` [compound 190, 6-Cyclohexyl-5-[2-(2,4-dimethyl-thiazol-5-yl)-quinolin-6-yl]-4-(2-oxo-2-thiomorpholin-4-yl-ethyl)-4H-thieno[3,2-b]pyrrole-2-carboxylic acid] belongs 98%.
